Experimental data taken from patent US10925867B2, “Immunotherapeutic dosing regimens comprising pomalidomide and an anti-CS1 antibody for treating cancer” (Bristol-Myers Squibb Company, priority 2015, dated 2021).
Marks after values point to notes of the source that are not given here.

Experiments:
[1] = test system: primary multiple myeloma cells; conditions: in the presence of peripheral lymphocytes; cited from earlier work
human myeloma xenografts = conditions: intraperitoneally (IP), dose-dependent; cited from earlier work
[2] = Infusion reactions in Study CA204004; assay type: in vivo, human
From the text: Elotuzumab can cause infusion reactions. Infusion reactions were reported in approximately 10% of patients treated with elotuzumab, lenalidomide and dexamethasone in Study CA204004 and in 7% of patients treated with elotuzumab, bortezomib and dexamethasone in Study CA204009. All reports of infusion reaction were ≤Grade 3. Grade 3 infusion reactions occurred in 1% of patients in Study CA204004 and in no patients in Study CA204009. The most common symptoms of an infusion reaction included fever, chills and hypertension. In Study CA204004, 5% of patients required interruption of the administration of elotuzumab due to infusion reaction for a median of 25 minutes and 1% of patients discontinued due to infusion reactions. In Study CA204009, 20% of patients required interruption of the administration of elotuzumab for a median of 40 minutes and none discontinued due to infusion reactions. Of the patients who experienced an infusion reaction, 70% (23/33) in Study CA204004 and 80% (4/5) in Study CA204009 had them during the first dose.

[3] = Study CA204112, elotuzumab administration in <1 hour (5 ml/min); assay type: in vivo, human; conditions: infusion rate escalated to 5 ml/min by the third dose; with lenalidomide/dexamethasone
Method: Preliminary data are available for an ongoing study CA204112 with elotuzumab administration in <1 hour (5 ml/min) combined with lenalidomide/dexamethasone in newly diagnosed and relapsed/refractory myeloma. In this trial, the infusion rate was escalated to 5 ml/min by the third elotuzumab dose.

[4] = 10 and 20 mg/kg in combination with lenalidomide; cited from earlier work
[5] = Infusion reactions by infusion rate, phase 2 portion of CA204003 (1703); assay type: in vivo, human
Method: The maximum infusion rate of 2 ml/min was initially explored in the phase 1 and 2 elotuzumab clinical trials. However, the phase 2 portion of the CA204003 (1703) and the CA204009 studies allowed an infusion rate escalation in subjects without infusion reactions for a minimum of 4 cycles of study therapy at 2 ml/min. The infusion rates are allowed to increase by 1 ml/min per cycle, up to 5 ml/min.
Preliminary safety data of the 5 ml/minute infusion rate are based on an analysis of subjects who escalated the elotuzumab infusion to 5 ml/minute in the CA204003 (1703) and CA204009 studies. In the phase 2 portion of the CA204003 (1703) study, 33% of all study infusions and 42.5% of subjects received infusions at 5 ml/min. In subjects who were administered infusions ≤2 ml/min, there were 7 grade 1-2 infusion reactions, and 1 grade 3-4 infusion reaction. […] In the randomized phase 2 CA204009 study, 27% of all subjects and 9% of all infusions on the investigational arm received infusions at 5 ml/min.

multiple myeloma = conditions: Ph II, patients administered pomalidomide; cited from earlier work
[6] = test system: relapsed and refractory multiple myeloma; conditions: MM-002, cited from earlier work
[7] = test system: relapsed and refractory MM; conditions: cited from earlier work
OPM2 xenograft = experiment: Efficacy dose titration of pomalidomide in OPM2 xenograft; assay type: in vivo; conditions: for LCK (Log cell kill) / Median Days to Target Size / TGI (Tumor growth inhibition) / Weight Change % / CR (Complete regression) / PR (Partial regression): d14, 21; for CR (Complete regression) / PR (Partial regression): mice of 8; for effect on tumor growth (in words): pomalidomide 0.5, 5 and 50 mg/kg orally
Method: FIG. 1. Antitumor Activity of pomalidomide treatment on OPM2 Multiple Myeloma Xenograft. Pomalidomide was administered at either 0.5 mg/kg, 5 mg/kg, or 50 mg/kg. […] Group one was left untreated (control, circles), group two treated with pomalidomide (50 mg/kg, triangles), group three treated with pomalidomide (5 mg/kg, squares), group four treated with pomalidomide (0.5 mg/kg, diamonds). All treatment sets were dosed daily for 5 days orally starting on d14 and then again for 5 days on d21. The data are presented as means+/−standard deviation. From this experiment the suboptimal 5 mg/kg dose was chosen as the dose to use in combination studies with elotuzumab and/or dexamethasone. […]
To assess the effect of pomalidomide treatment on the growth of the OPM2 xenograft, scid mice with established tumors were treated orally with pomalidomide at doses of 0.5 mg/kg, 5 mg/kg and 50 mg/kg. […] From this experiment the suboptimal 5 mg/kg dose was chosen as the dose to use in the combination studies (Study #1, OPM2-15 and Study #2, OPM2-16).

[8] = 38 subjects, including 22 with dexamethasone added
[9] = pomalidomide 0.5 mg/kg PO QD × 5
[10] = pomalidomide 50 mg/kg PO QD × 5

## Elotuzumab: humanized monoclonal IgG1 antibody directed against CS-1; VL SEQ ID NO:1, VH SEQ ID NO:2
[1]
  ADCC: induces significant antibody-dependent cellular cytotoxicity (ADCC)
Human myeloma xenografts
  tumor growth: inhibits tumor growth of human myeloma xenografts
[2]
  median duration of interruption: 25 min
  patients discontinued due to infusion reactions: 1%
  patients requiring interruption of administration due to infusion reaction: 5%
  patients with Grade 3 infusion reactions: 1%
  patients with infusion reaction who had it during the first dose: 70%
[2]; with lenalidomide and dexamethasone
  patients with infusion reactions: approximately 10%
[3]
  frequency of infusion reactions: no increased frequency of infusion reactions
[4]
  steady-state Cmin: above 70 μg/mL
[5]; infusion rates >2 ml/min
  grade 3-4 infusion reactions: no grade 3-4 infusion reactions
  number of grade 1-2 infusion reactions: 1
[5]; infusions ≤2 ml/min
  number of grade 1-2 infusion reactions: 7
  number of grade 3-4 infusion reactions: 1

## Nc1cccc2c1C(=O)N(C1CCC(=O)NC1=O)C2=O (racemic) [Pomalidomide, (RS)-4-amino-2-(2,6-dioxo-piperidin-3-yl)-isoindole-1,3-dione]
Multiple myeloma
  median progression free survival: 11.6 months
  overall response rate: 63%
  patients achieving VGPR or CR: 33%
[6]
  Grade 3/4 anemia: 24%
  Grade 3/4 neutropenia: 48%
  Grade 3/4 thrombocytopenia: 22%
  ORR (≥PR): 18%
  fatigue: 11%
  frequency of febrile neutropenia: 5%
  incidence of DVT: 3%
  median OS: 13.6 months
  median response duration: 10.7 months
  pneumonia: 15%
[6]; pomalidomide 4 mg/day d1-21 of 28, dexamethasone 40 mg/week, median follow-up 14.2 months
  median PFS: 2.7 months
[7]; 5 mg daily Days 1-21 of 28-day cycle
  number of DLTs (Grade 4 neutropenia): 4
[7]; 38 subjects, 2-5 mg
  treatment-emergent Grade 3/4 anemia: 21%
  treatment-emergent Grade 3/4 fatigue: 16%
  treatment-emergent Grade 3/4 neutropenia: 53%
  treatment-emergent Grade 3/4 thrombocytopenia: 18%
[7]; [8]
  subjects achieving CR: 3%
  subjects achieving ≥MR or better: 42%
  subjects achieving ≥PR: 21%
[7]; Days 1-21 of 28-day cycle
  MTD: 4 mg/day
OPM2 xenograft; [9]
  LCK (Log cell kill): 0.19^g
  Median Days to Target Size: 25 days
  TGI (Tumor growth inhibition): 45%
  Weight Change %: 9.3%
  CR (Complete regression): 0/8
  PR (Partial regression): 0/8
OPM2 xenograft; pomalidomide 5 mg/kg PO QD × 5
  LCK (Log cell kill): 0.59^f
  Median Days to Target Size: 29 days
  TGI (Tumor growth inhibition): 63.1%
  Weight Change %: 3.2%
  CR (Complete regression): 0/8
  PR (Partial regression): 0/8
OPM2 xenograft; [10]
  LCK (Log cell kill): 1.0^e
  Median Days to Target Size: 33 days
  TGI (Tumor growth inhibition): 87.1%
  Weight Change %: 4.7%
  CR (Complete regression): 0/8
  PR (Partial regression): 1/8
OPM2 xenograft
  effect on tumor growth (in words): suppressed tumor growth in a dose-dependent fashion
OPM2 xenograft; listed as pomalidomide
  effect on tumor growth (in words): inhibited tumor growth in a dose-dependent fashion
